Results as given in ChEMBL document CHEMBL1629646, “Continuous cefazolin infusion to treat bone and joint infections: clinical efficacy, feasibility, safety, and serum and bone concentrations” (Antimicrob Agents Chemother, 2009).
≈ marks a conversion by molar mass, not a printed value.

Columns and labels:
Bacillus pumilus = assay: Antimicrobial activity against Bacillus pumilus SJ1554; format: functional
[1] = Drug level in patient serum with bone and joint infection at 60 to 80 mg/kg/day, iv administered as continuous infusion for 42 days measured from day 2 to 10 by agar disk diffusion assay; format: ADME, organism-based; set-up: route intravenous; details: human, read-out: Drug uptake
[2] = Drug level in patient serum with bone and joint infection at 60 to 80 mg/kg/day, iv administered as continuous infusion for 42 days measured from day 11 to 21 by agar disk diffusion assay; format: ADME, organism-based; set-up: route intravenous; details: human, read-out: Drug uptake
[3] = Drug level in patient bone with bone and joint infection measured per gram of tissue at 60 to 80 mg/kg/day, iv administered as continuous infusion for 42 days measured on day 7 by agar disk diffusion assay; format: ADME, organism-based, Bone element; set-up: route intravenous; details: human, in vivo, 1008 h
[4] = Ratio of drug level in bone to serum in patient with bone and joint infection at 60 to 80 mg/kg/day, iv administered as continuous infusion for 42 days; format: ADME, organism-based; set-up: route intravenous; details: human
Staphylococcus [5] = assay: Antimicrobial activity against methicillin-susceptible Staphylococcus; format: functional
Streptococcus = assay: Antimicrobial activity against Streptococcus; format: functional
Nucleic Acid = assay: Ratio of drug level in patient bone with bone and joint infection to MIC90 for drug-susceptible Staphylococci; format: functional
Staphylococcus [6] = assay: Ratio of drug level in patient serum with bone and joint infection to MIC90 for drug-susceptible Staphylococci

Structure (SMILES)	MIC (Bacillus pumilus) [µg/mL]	concentration at 1008 h [1] [µg/mL]	concentration at 1008 h [2] [µg/mL]	bone concentration [3] [µg/g]	Kp at 1008 h [4]	MIC90 (Staphylococcus [5]) [µg/mL]	MIC90 (Streptococcus) [µg/mL]	Ratio (Nucleic Acid)	Ratio (Staphylococcus [6])
C[C@@H]1O[C@@H]1P(=O)(O)O [FOSFOMYCIN]	> 512	–	–	–	–	–	–	–	–
CO[C@H]1/C=C/O[C@@]2(C)Oc3c(C)c(O)c4c(O)c(c(/C=N/N5CCN(C)CC5)c(O)c4c3C2=O)NC(=O)/C(C)=C\C=C\[C@H](C)[C@H](O)[C@@H](C)[C@@H](O)[C@@H](C)[C@H](OC(C)=O)[C@@H]1C [RIFAMPIN]	> 128	–	–	–	–	–	–	–	–
Cc1nnc(SCC2=C(C(=O)O)N3C(=O)[C@@H](NC(=O)Cn4cnnn4)[C@H]3SC2)s1 [CEFAZOLIN]	–	63	57	13.5	0.25	1 (≈ 2.2 µM)	0.1 (≈ 0.22 µM)	5	60.8
